Results taken from EPA's ToxValDB 9.5 (doi:10.2903/j.efsa.2010.1632).
Values after ≈ are worked out from the molar mass of the structure shown.

Assays:
Apis mellifera = details: acute; duration: 48 hours; dermal; mortality
Bibionidae = details: chronic/long-term; duration: 28 days; development
Canidae = details: oral, Dog Other, body weight
Cyprinodon variegatus = details: acute; duration: 96 hours; mortality
Daphnia magna = details: chronic/long-term; duration: 21 days; reproduction
Folsomia candida = details: chronic/long-term; duration: 28 days; reproduction
Lycopersicon sp. = details: not reported; seedling emergence
Mus musculus = details: chronic; duration: 78 weeks; body weight
Neomysis kadiakensis = details: chronic/long-term; duration: 35 days; reproduction
Oncorhynchus mykiss = details: acute; duration: 96 hours; mortality
Oryctolagus sp. = details: reproduction developmental; body weight
Pimephales promelas = details: chronic/long-term; duration: 301 days; other
Rattus norvegicus = details: body weight
Aphidius rhopalosiphi = test: LR50; higher = less toxic; details: acute; duration: 48 hours; mortality

SMILES: CC(C)(C)c1ccc(CSc2cnn(C(C)(C)C)c(=O)c2Cl)cc1 [Pyridaben]
- LD50 (Anas platyrhynchos; acute, oral, unspecified, mortality): > 2500 mg/kg-day
- NOEC (Anas platyrhynchos; reproductive): 10 mg/kg-day
- NOEC (Anas platyrhynchos; short-term, oral, feed, mortality): 659 mg/kg-day
- LD50 (Apis mellifera): > 0.024 µg/piece
- NOEC (Bibionidae): 0.0051 mg/L
- NOAEL (Canidae; chronic, duration: 1 years): 1 mg/kg-day
- NOAEL (Canidae; subchronic, duration: 3 months): 1 mg/kg-day
- LC50 (Colinus virginianus; acute, oral, diet, mortality): > 4300 mg/kg-day
- LD50 (Colinus virginianus; acute, oral, mortality): > 2250 mg/kg-day
- NOEC (Colinus virginianus; reproduction developmental): 130 mg/kg-day
- LC50 (Cyprinodon variegatus): 0.017 mg/L (≈ 0.0466 µM)
- NOEC (Daphnia magna): 8.6e-05 mg/L
- NOEC (Folsomia candida): 3.28 mg/kg
- LEL (Lycopersicon sp.): 560 g/ha
- NOAEL (Mus musculus): 0.81 mg/kg-day
- NOEC (Neomysis kadiakensis): 4.7e-05 mg/L
- LC50 (Oncorhynchus mykiss): 0.73 ng/mL (≈ 0.002 µM)
- NOAEL (Oryctolagus sp.): 5 mg/kg-day
- NOEC (Pimephales promelas): 0.00028 mg/L
- NOEC (Rattus norvegicus; chronic): 2.37 mg/kg-day
- NOAEL (Rattus norvegicus; chronic, duration: 2 years): 1.1 mg/kg-day
- NOAEL (Rattus norvegicus; reproduction developmental): 4.7 mg/kg-day
- LC50 (Tagia sp.; acute, duration: 14 days, mortality): > 38 mg/kg
- NOEC (Tagia sp.; chronic/long-term, duration: 56 days, reproduction): 0.29 mg/kg
- LR50 (Aphidius rhopalosiphi): 0.24 g/ha
